The source of these data is ChEMBL document CHEMBL1201862, “PubChem BioAssay data set” (2004).

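Protocol summary: plate cells (96-well), add compound at 5 concentrations, incubate 48 h, interpolate endpoints linearly. GI50 marks 50% less growth.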 Calls of active or inactive are those of the source. No stated cut-off is given here; in the data, active = GI50 up to about 1.1 µM and inactive = higher. Starred links: 1 amine or outer side, 2 acyl side, 3 side chain; linkers in the order of their positions; H or OH if unused. Positions of bridges follow the written chain, without caps; N, C: chain ends. Non-standard residues stand in square brackets, D forms with d. Residues, ends and D or L forms follow the SMILES beside them. Chains are numbered I, II in the order given. Actinocin(1to9) = Cc1c2oc3c(C)ccc(C(=O)[*:2])c3nc-2c(C(=O)[*:1])c(N)c1=O; aThr = C[C@H](O)[C@H](N)C(=O)O; NMeV = CN[C@H](C(=O)O)C(C)C; Sar = CNCC(=O)O

Common to all, as to experiment: NCI-60 cell line screen, 48 h
Test [1] deals with 786-0.
For test [2], the system named is CCRF-CEM.
In test [3] the test system is COLO 205.
In test [4] the test system is HCT-116.
Test [5] relates to HCT-15.
Test [6] has as its system HL-60.
Test [7] relates to Hs-578T.
Test [8] has as its system IGROV-1.
Test [9] relates to K562.
Test [10] deals with M14.
Test [11] deals with MDA-MB-231.
Test [12] relates to NCI-H23.
Test [13] relates to RXF 393.
Test [14] has as its system SK-MEL-5.
In test [15] the test system is SN12C.
Test [16] relates to SNB-19.
Test [17] concerns SNB-75.
In test [18] the test system is SR.
Test [19] has as its system T47D.
Test [20] relates to TK-10.

Take `C=CCNC1=C2C[C@@H](C)C[C@@H](OC)[C@H](OC(=O)CCCCN)[C@H](C)/C=C(\C)[C@@H](OC(N)=O)[C@H](OC)/C=C\C=C(/C)C(=O)NC(=CC1=O)C2=O`: the GI50 in [1] is 13.4 µM (inactive); in [2] it was 7.01 µM (inactive); in test [3], 5.22 µM (inactive); in test [4], 13.8 µM (inactive); in test [5], 18.7 µM; in [6], 11.7 µM (inactive). Moreover, the GI50 in test [7] is 25.6 µM (inactive); in test [8], 13.6 µM (inactive); in [9] it was 9.62 µM (inactive); in test [10] it was 13.4 µM (inactive); in test [11], 14.2 µM (inactive); in [12], 14.6 µM (inactive). In addition, the GI50 in test [13] is 14.8 µM (inactive); in [14], 11.6 µM (inactive); in test [15] it was 13 µM (inactive); in test [16] it was 11.3 µM (inactive); in test [17], 5.51 µM (inactive); in test [18], 4.93 µM (inactive). Also, the GI50 in test [19] was 14.8 µM (inactive); in [20], 15 µM (inactive).

Take `CC(C#N)(NO)C(C)(C#N)NO` (stereo not given): the GI50 was > 100 µM (inactive) in [1]; > 100 µM (inactive) in [2]; 81.1 µM (inactive) in [3]; > 100 µM (inactive) in [4]; greater than 100 µM in test [5]; > 100 µM (inactive) in test [6]. Besides, the GI50 in test [7], in test [8], in [9], in [10], in test [11] and in test [12] was > 100 µM (inactive) throughout. For the same molecule, the GI50 in [13], in test [14], in test [15], in test [16], in [17] and in test [18] was > 100 µM (inactive) throughout. The GI50 in test [19] and in test [20] was > 100 µM (inactive) throughout.

For the molecule `O=C1C(Cl)=CC2(C=C1Cl)CCNC1=C2C(=O)c2nc[nH]c2C1=O`, the GI50 in [1] is 41.3 µM (inactive); in test [2], 30.8 µM (inactive); in [3], 22.9 µM (inactive); in test [4], 26 µM (inactive); in test [5] it was 46 µM; in [6], 24.4 µM (inactive). Besides, the GI50 is > 100 µM (inactive) in test [7]; 47.1 µM (inactive) in test [8]; 29.4 µM (inactive) in [9]; 39 µM (inactive) in [10]; 35.6 µM (inactive) in test [11]; 27.2 µM (inactive) in [12]. The GI50 is 23.2 µM (inactive) in test [13]; 16.6 µM (inactive) in [14]; 36.5 µM (inactive) in [15]; 32.3 µM (inactive) in [16]; 97.5 µM (inactive) in test [17]; 2.12 µM (inactive) in [18]. In addition, the GI50 in [19] is 99.8 µM (inactive); in test [20], > 100 µM (inactive).

`Cc1c2oc3c(C)ccc(C(=O)N[C@@H]4C(=O)N[C@H](C(C)C)C(=O)N5CCC[C@H]5C(=O)N(C)CC(=O)N(C)[C@@H](C(C)C)C(=O)O[C@H]4C)c3nc-2c(C(=O)N[C@@H]2C(=O)N[C@H](C(C)C)C(=O)N3CCC[C@H]3C(=O)N(C)CC(=O)N(C)[C@@H](C(C)C)C(=O)O[C@H]2C)c(N)c1=O` (I: [aThr][dV]P[Sar][NMeV] / II: [aThr][dV]P[Sar][NMeV]; ester I:1-I:C, II:1-II:C; linker I:N-II:N via Actinocin(1to9)): the GI50 in [1] is 0.000951 µM (active); in test [2], 0.000863 µM (active); in test [3], 0.00106 µM (active); in test [4], 0.000332 µM (active); in test [5] it was 0.02 µM; in [6], 0.00231 µM (active). Moreover, the GI50 in [7] is 0.00187 µM (active); in [8], 0.00217 µM (active); in [9], 0.000492 µM (active); in test [10], 0.00528 µM (active); in test [11] it was 0.00455 µM (active); in [12] it was 0.00219 µM (active). Moreover, the GI50 is 0.00258 µM (active) in test [13]; 0.00115 µM (active) in test [14]; 0.00185 µM (active) in test [15]; 0.00161 µM (active) in test [16]; 0.0023 µM (active) in [17]; 0.00031 µM (active) in test [18]. In addition, the GI50 in [19] was 0.000628 µM (active); in [20], 0.0149 µM (active).

For the molecule `CC(C)=CCC[C@@H](C)C1=CC(=O)C(C)=C(O)C1=O` [ISOPEREZONE], the GI50 is 5.78 µM (inactive) in test [1]; 1.19 µM (inactive) in [2]; 10.2 µM (inactive) in [3]; 4.08 µM (inactive) in test [4]; 2.66 µM in [5]; 0.3 µM (active) in test [6]. For the same molecule, the GI50 was 6.43 µM (inactive) in test [7]; 9.2 µM (inactive) in test [8]; 1.58 µM (inactive) in [9]; 5.25 µM (inactive) in test [10]; 6.38 µM (inactive) in test [11]; 6.75 µM (inactive) in [12]. For the same molecule, the GI50 is 2.67 µM (inactive) in [13]; 6.12 µM (inactive) in test [14]; 10.7 µM (inactive) in test [15]; 15.9 µM (inactive) in test [16]; 4.5 µM (inactive) in [17]; 2.39 µM (inactive) in [18]. Besides, the GI50 in test [19] is 2.13 µM (inactive); in test [20], 5.11 µM (inactive).

Take `c1ccc2c3c(c(N4CCNCC4)nc2c1)CCCC3`: the GI50 in test [1] was 14.4 µM (inactive); in test [2] it was 9.98 µM (inactive); in [3], 5.75 µM (inactive); in test [4] it was 14.1 µM (inactive); in test [5], 15.8 µM; in test [6], 8.93 µM (inactive). In addition, the GI50 in test [7] is 27.7 µM (inactive); in test [8] it was 12.4 µM (inactive); in [9], 5.5 µM (inactive); in [10], 5.26 µM (inactive); in test [11] it was 14.3 µM (inactive); in [12] it was 14.6 µM (inactive). In addition, the GI50 is 10.4 µM (inactive) in test [13]; 12 µM (inactive) in test [14]; 16.3 µM (inactive) in test [15]; 14.6 µM (inactive) in [16]; 13.9 µM (inactive) in test [17]; 13.2 µM (inactive) in test [18]. Further, the figures for the GI50 in test [19] and in test [20] were 13.5 µM (inactive) and 13.7 µM (inactive), respectively.

Take `O=C1Nc2ccccc2/C1=N/N=c1\cccc[nH]1`: the GI50 in [1] is 12.9 µM (inactive); in [2], 18.8 µM (inactive); in test [3], 33.7 µM (inactive); in test [4], 11.6 µM (inactive); in test [5] it was 30.3 µM; in test [6], 16 µM (inactive). The GI50 in test [7] is 39.1 µM (inactive); in [8], 1 µM (active); in [9] it was 52.5 µM (inactive); in test [10], > 100 µM (inactive); in test [11] it was 12.6 µM (inactive); in [12], 28.2 µM (inactive). The GI50 was 97.3 µM (inactive) in [13]; 40.4 µM (inactive) in [14]; 29.2 µM (inactive) in test [15]; 30.7 µM (inactive) in test [16]; 21.5 µM (inactive) in [17]; 14.3 µM (inactive) in test [18]. In addition, the GI50 in [19] was 38.5 µM (inactive); in [20], 22.5 µM (inactive).

Turning to `Cc1ccc(OC(=O)N2C/C(=C\c3ccccc3)C(=O)/C(=C/c3ccccc3)C2)cc1`, the GI50 in test [1] is 17.1 µM (inactive); in test [2], 3.2 µM (inactive); in [3], > 68.7 µM (inactive); in [4] it was 2.13 µM (inactive); in [5], 26.3 µM; in [6], 3.84 µM (inactive). Further, the GI50 in test [7] was 20.9 µM (inactive); in test [8], 40.7 µM (inactive); in test [9], 3.94 µM (inactive); in test [10], 8.79 µM (inactive); in test [11] it was 26.7 µM (inactive); in test [12], 26.4 µM (inactive). Also, the GI50 in [13] was 20.1 µM (inactive); in test [14], 20.6 µM (inactive); in test [15], 24.8 µM (inactive); in [16], 43.5 µM (inactive); in test [17] it was 23 µM (inactive); in test [18], 3.43 µM (inactive). Also, the GI50 in [19] is > 100 µM (inactive); in test [20], 32.1 µM (inactive).

Turning to `COC(=O)C(C)(/N=C/c1ccccc1)c1ccccc1` (stereo not given), the GI50 is > 100 µM (inactive) in [1]; > 100 µM (inactive) in test [2]; > 100 µM (inactive) in test [3]; > 100 µM (inactive) in test [4]; greater than 100 µM in test [5]; > 100 µM (inactive) in test [6]. Further, the GI50 in test [7], in test [8], in test [9], in test [10], in test [11] and in test [12] was > 100 µM (inactive) each time. Further, the GI50 in test [13], in test [14], in test [15], in test [16], in test [17] and in test [18] was > 100 µM (inactive) in each case. Further, the GI50 in test [19] and in [20] was > 100 µM (inactive) each time.

In the case of `OC(Cc1cccnc1)(c1ccccc1)c1ccccc1`, the GI50 in test [1] was > 100 µM (inactive); in test [2] it was > 100 µM (inactive); in test [3], > 100 µM (inactive); in test [4], > 100 µM (inactive); in test [5], greater than 100 µM; in test [6] it was 55.5 µM (inactive). For the same molecule, the GI50 in [7] was > 100 µM (inactive); in test [8], > 100 µM (inactive); in [9], 72.1 µM (inactive); in test [10], 68.1 µM (inactive); in test [11], > 100 µM (inactive); in test [12] it was 70.8 µM (inactive). The GI50 in test [13] is > 100 µM (inactive); in test [14] it was 32.9 µM (inactive); in test [15] it was > 100 µM (inactive); in test [16] it was > 100 µM (inactive); in [17], > 100 µM (inactive); in test [18], 58.7 µM (inactive). Further, the GI50 is 59 µM (inactive) in test [19] and > 100 µM (inactive) in test [20].
